Results reported in publication PMC6032384 (International Journal of Molecular Sciences, 2018).
Like-named read-outs stand apart in the source and are kept apart here.

Experiments:
[1] = system: BAD gene knockout immortalized mouse embryonic fibroblasts (BAD KO SV40 MEF); experiment: Alamar blue (AB) cytotoxicity assay, BAD KO SV40 MEF; format: cell-based; conditions: 72 h
[2] = system: wild-type immortalized mouse embryonic fibroblasts (WT SV40 MEF); experiment: Alamar blue (AB) cytotoxicity assay, WT SV40 MEF; format: cell-based; conditions: 72 h
[3] = system: MRC-5 (human lung fibroblast); experiment: Alamar blue (AB) cytotoxicity assay, MRC-5 noncancerous cells; format: cell-based; conditions: MRC5 non-cancer cells, 72 h
[4] = system: PBMC (human peripheral blood mononuclear cell); experiment: Alamar blue (AB) cytotoxicity assay, PBMC noncancerous cells; format: cell-based; conditions: PBMC non-cancer cells, 72 h
[5] = system: HL-60 cells; experiment: Cell morphology (May-Grunwald-Giemsa staining) and light scattering by flow cytometry; format: cell-based, human; conditions: 24 and 48 h
[6] = system: HL-60 cells; format: cell-based, human
Protocol: The internucleosomal DNA fragmentation and cell cycle distribution were assessed in HL-60 cells after 24 and 48 h of incubation with the [Ru(PPh3)2(Thy)(bipy)]PF6 complex in a DNA content-based assay using the dye propidium iodide (PI) and flow cytometry (Table 3). All DNA with a subdiploid size (sub-G0/G1) were considered to be fragmented. At concentrations of 1, 2, and 4 μM, the complex led to, respectively, 19.4%, 30.1%, and 36.2% DNA fragmentation after 24 h of incubation and to 12.5%, 26.7%, and 58.2% DNA fragmentation after 48 h of incubation.
(§1) Light scattering features were determined by flow cytometry. The internucleosomal DNA fragmentation and cell cycle distribution were determined according to Nicoletti et al.. For apoptosis measurements, a FITC Annexin V Apoptosis Detection Kit I (BD Biosciences, San Jose, CA, USA) was used, and the analysis was performed, according to the manufacturer’s instructions. A protection assay using the pan-caspase inhibitor Z-VAD(OMe)-FMK (Cayman Chemical, Ann Arbor, MI, USA) was also evaluated. The mitochondrial transmembrane potential was determined by the retention of the dye rhodamine 123 [28]. The levels of ROS were measured, as previously described, using 2′,7′-dichlorofluorescin diacetate (DCF-DA, Sigma-Aldrich Co.). At least 1 × 10^4 events were recorded per sample using a BD LSRFortessa cytometer along with BD FACSDiva Software (BD Biosciences) and Flowjo Software 10 (Flowjo LCC, Ashland, OR, USA). The cellular debris was omitted from the analysis.

[7] = system: HL-60 cells; experiment: Annexin V-FITC/PI apoptosis assay by flow cytometry; format: cell-based, human
Protocol: Additionally, annexin V, which is a Ca^2+-dependent protein with high affinity for phosphatidylserine, was conjugated to a fluorochrome to detect phosphatidylserine exposure using flow cytometry. Since phosphatidylserine exposure precedes the loss of membrane integrity, annexin V staining was used along with the dye PI to identify early and late apoptotic cells, as well as necrotic cells. Therefore, annexin V-FITC/PI double staining was applied to HL-60 cells that were treated with the [Ru(PPh3)2(Thy)(bipy)]PF6 complex after 24 and 48 h of incubation, and the numbers of viable, early apoptotic, late apoptotic, and necrotic cells were quantified by flow cytometry (Figure 5).
Figure 5 Evaluation of the apoptosis induced by the [Ru(PPh3)2(Thy)(bipy)]PF6 complex (CRT) in HL-60 cells determined by flow cytometry using annexin V-FITC/PI staining after 24 and 48 h of incubation. (A) Representative flow cytometry dot plots. (B) Apoptotic cell quantification (annexin V-FITC positive cells). […] Data are presented as the mean ± S.E.M. of at the least three independent experiments. * p < 0.05 as compared with the negative control by ANOVA, followed by the Student Newman-Keuls test. […] Its quadrant percentages are just as hard to read: 24 h about Q1 0.640%, Q2 5.23%, Q4 85.6%, Q3 8.47%; 48 h about Q1 0.430%, Q2 3.07%, Q4 91.0%, Q3 5.52%.
as §1

[8] = system: HL-60 cells; experiment: Protection assay with pan-caspase inhibitor Z-VAD(OMe)-FMK (annexin V-FITC/PI); format: cell-based, human; conditions: 50 µM Z-VAD(OMe)-FMK 2 h, then 4 μM CRT 48 h
Excerpt: Loss of the mitochondrial transmembrane potential is a critical step in intrinsic apoptosis, and activation of caspase-3 (an executioner caspase) favors DNA fragmentation.
Figure 7 Prevention of the apoptosis induced by the [Ru(PPh3)2(Thy)(bipy)]PF6 complex (CRT) in HL-60 cells by a pan-caspase inhibitor (Z-VAD(OMe)-FMK), as assessed by flow cytometry using annexin V-FITC/PI staining. (A) Representative flow cytometry dot plots. (B) Apoptotic cell quantification (annexin V-FITC positive cells). The cells were pretreated for 2 h with 50 µM Z-VAD(OMe)-FMK and then incubated with 4 μM CRT for 48 h. […]
as §1, with “For apoptosis measurements, a FITC Annexin V Apoptosis Detection Kit I (BD Biosciences, San Jose, CA, USA) was used, and the analysis was performed, according to the manufacturer’s instructions.” left out, “The cellular debris was omitted from the analysis.” left out

[9] = system: caspase-3 in HL-60 cells; experiment: Caspase-3 colorimetric assay; format: cell-based, human; conditions: 48 h
Protocol: (§2) Figure 6 Caspase-3 activity (A), assessed by a colorimetric assay after 48 h of incubation, and mitochondrial membrane potential (B), evaluated by flow cytometry using rhodamine 123 staining after 24 h of incubation, of HL-60 cells treatment with the [Ru(PPh3)2(Thy)(bipy)]PF6 complex (CRT). […] Data are presented as the mean ± S.E.M. of at the least three independent experiments. * p < 0.05 as compared with the negative control by ANOVA, followed by the Student Newman-Keuls test.
The cell lines that were used in this study were obtained from the American Type Culture Collection (ATCC) and were cultured, as described previously. Primary PBMCs were obtained with informed consent (# 031019/2013). All the cells were free of contamination, and the cell viability was determined by the TBE or AB assay, which were performed following the procedure that was described previously. The cell morphology analysis was performed using cytospin and May-Grunwald-Giemsa staining as described previously. To investigate caspase-3 activation, a caspase-3 colorimetric assay kit (Sigma-Aldrich Co.) was used.

[10] = system: HL-60 cells; experiment: Mitochondrial transmembrane potential (rhodamine 123, flow cytometry); format: cell-based, human; conditions: rhodamine 123, 24 h
Protocol: as §2
as §1, with “The cellular debris was omitted from the analysis.” left out

[11] = system: HL-60 cells; experiment: ROS levels (DCF-DA, flow cytometry); format: cell-based, human; conditions: 1 or 3 h of incubation, data not shown
Protocol: The induction of ROS production is also an important mechanism for inducing apoptosis.
as §1

[12] = system: tested cancer cell lines; experiment: Alamar blue cytotoxicity, summary over the tested cancer cell lines; format: cell-based; conditions: AB assay, 72 h, most of the tested cancer cell lines
[13] = system: HL-60 cells; conditions: TBE
[14] = system: B16-F10, HepG2, K562, and HL-60; design: method as in doi:10.1039/C7NJ04368F; conditions: small panel of cancer cells (B16-F10, HepG2, K562, and HL-60), previous study; cited from earlier work

O=c1[nH]cc(F)c(=O)[nH]1 [5-fluorouracil]
IC50 ([1]; Mus musculus, Fibroblast): 11200 nM | IC50 ([2]; Mus musculus, Fibroblast): 5700 nM

Cc1c[nH]c(=O)[n-]c1=O.F[P-](F)(F)(F)(F)F.[Ru+2].c1ccc(-c2ccccn2)nc1.c1ccc(P(c2ccccc2)c2ccccc2)cc1.c1ccc(P(c2ccccc2)c2ccccc2)cc1 [CRT, [Ru(PPh3)2(Thy)(bipy)]PF6]
IC50 [3]: 11500 nM | IC50 [4]: 1700 nM | IC50 [1]: 2400 nM | IC50 [2]: 2200 nM | Cell morphology ([5]; May-Grunwald-Giemsa-stained cells): cell morphology changes that were associated with apoptosis | Forward light scatter (FSC), cell shrinkage ([5]; flow cytometry): decrease | Side scatter (SCC), nuclear condensation ([5]; flow cytometry): increase | DNA content G0/G1 ([6]; 1 µM, 24 h): 30.5 ± 4.8 % | DNA content G2/M ([6]; 1 µM, 24 h): 18.5 ± 0.7% | DNA content S ([6]; 1 µM, 24 h): 11.5 ± 1.7% | DNA content Sub-G0/G1 (DNA fragmentation) ([6]; 1 µM, 24 h): 19.4 ± 3.9 % | DNA content Sub-G0/G1 (DNA fragmentation) ([6]; 1 µM, 24 h, listed as [Ru(PPh3)2(Thy)(bipy)]PF6 complex): 19.4% | DNA content G0/G1 ([6]; 1 µM, 48 h): 41.2 ± 9.6 % | DNA content G2/M ([6]; 1 µM, 48 h): 10.8 ± 2.5% | DNA content S ([6]; 1 µM, 48 h): 11.2 ± 2.4% | DNA content Sub-G0/G1 (DNA fragmentation) ([6]; 1 µM, 48 h): 12.5 ± 3.5 % | DNA content Sub-G0/G1 (DNA fragmentation) ([6]; 1 µM, 48 h, listed as [Ru(PPh3)2(Thy)(bipy)]PF6 complex): 12.5% | DNA content G0/G1 ([6]; 2 µM, 24 h): 38.7 ± 2.2 % | DNA content G2/M ([6]; 2 µM, 24 h): 17.9 ± 4.4% | DNA content S ([6]; 2 µM, 24 h): 7.8 ± 1.5 % | DNA content Sub-G0/G1 (DNA fragmentation) ([6]; 2 µM, 24 h): 30.1 ± 7.9 % | DNA content Sub-G0/G1 (DNA fragmentation) ([6]; 2 µM, 24 h, listed as [Ru(PPh3)2(Thy)(bipy)]PF6 complex): 30.1% | DNA content G0/G1 ([6]; 2 µM, 48 h): 42.6 ± 4.9 % | DNA content G2/M ([6]; 2 µM, 48 h): 14.4 ± 2.5% | DNA content S ([6]; 2 µM, 48 h): 10.5 ± 0.8 % | DNA content Sub-G0/G1 (DNA fragmentation) ([6]; 2 µM, 48 h): 26.7 ± 7.0 % | DNA content Sub-G0/G1 (DNA fragmentation) ([6]; 2 µM, 48 h, listed as [Ru(PPh3)2(Thy)(bipy)]PF6 complex): 26.7% | DNA content G0/G1 ([6]; 4 µM, 24 h): 36.3 ± 3.1 % | DNA content G2/M ([6]; 4 µM, 24 h): 13.2 ± 4.1% | DNA content S ([6]; 4 µM, 24 h): 10.4 ± 2.4% | DNA content Sub-G0/G1 (DNA fragmentation) ([6]; 4 µM, 24 h): 36.2 ± 9.5 % | DNA content Sub-G0/G1 (DNA fragmentation) ([6]; 4 µM, 24 h, listed as [Ru(PPh3)2(Thy)(bipy)]PF6 complex): 36.2% | DNA content G0/G1 ([6]; 4 µM, 48 h): 28.4 ± 5.9 % | DNA content G2/M ([6]; 4 µM, 48 h): 5.5 ± 2.6 % | DNA content S ([6]; 4 µM, 48 h): 4.4 ± 1.2 % | DNA content Sub-G0/G1 (DNA fragmentation) ([6]; 4 µM, 48 h): 58.2 ± 8.8 % | DNA content Sub-G0/G1 (DNA fragmentation) ([6]; 4 µM, 48 h, listed as [Ru(PPh3)2(Thy)(bipy)]PF6 complex): 58.2% | Effect of pretreatment with antioxidant N-acetyl-L-cysteine (NAC) on the increase in apoptotic cells ([7]; NAC pretreatment, data not shown): did not prevent | Percentage of apoptotic cells (early apoptotic cells + late apoptotic cells) ([7]; annexin V-FITC/PI, 24 and 48 h): significant increase | Percentage of necrotic cells ([7]; annexin V-FITC/PI, 24 and 48 h): No significant increase | Effect of pan-caspase inhibitor Z-VAD(OMe)-FMK on the complex-induced increase in apoptotic cells [8]: partially prevented | Caspase-3 activity [9]: induced activation of caspase-3 | Mitochondrial transmembrane potential [10]: caused the loss of the mitochondrial transmembrane potential | ROS levels [11]: did not induce a significant increase | IC50 [12]: < 3000 nM | Reduction of the number of viable cells ([13]; 1 μM, 24 h): 32.5% | Reduction of the number of viable cells ([13]; 1 μM, 48 h): 62.6% | Reduction of the number of viable cells ([13]; 2 μM, 24 h): 49.1% | Reduction of the number of viable cells ([13]; 2 μM, 48 h): 66.6% | Reduction of the number of viable cells ([13]; 4 μM, 24 h): 59.1% | Reduction of the number of viable cells ([13]; 4 μM, 48 h): 73.4% | Number of nonviable cells ([13]; 1, 2 and 4 μM, 24 and 48 h): No significant increase | IC50 [14]: < 2000 nM
